Source: paper PMC7611208 (Clinical cancer research : an official journal of the …, 2019)
pIC50: −log10 of the molar value.

Biological target: T1, UCHL1 (Homo sapiens, UniProt P09936)
T1 sequence (P09936 1-220): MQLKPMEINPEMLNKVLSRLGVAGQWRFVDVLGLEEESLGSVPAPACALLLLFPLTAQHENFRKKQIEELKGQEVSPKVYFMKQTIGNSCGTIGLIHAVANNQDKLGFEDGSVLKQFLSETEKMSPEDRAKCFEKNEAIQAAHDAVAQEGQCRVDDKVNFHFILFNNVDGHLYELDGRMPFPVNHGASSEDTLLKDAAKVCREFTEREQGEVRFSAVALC
Assay: in vitro DUB IC50 assay
Type: biochemical

Work on `N#CN1CC[C@H](C(=O)Nc2ncc(N3CCOCC3)s2)C1` [6RK73] yielded a pIC50 of 6.64.
